Literature values as cited in patent US20240410831A1, “Multi-Mode Zinc-Selective Emission-Ratiometric Fluorescent Probes for Biological Application” (Georgia Tech Research Corporation, priority 2023, published 2024).
Where a name gives a salt, the structure may show the parent alone.

Key:
[1] = in 1.0 N H2SO4; cited from earlier work
[2] = pH 7.0, 25° C.; read-out: Kd for Zn(II) of competing ligand; cited from earlier work

Row | SMILES | quantum yield of reference standard [1] | Kd [2] [nM]
1 | C=C[C@H]1C[N@@]2CC[C@H]1C[C@H]2[C@H](O)c1ccnc2ccc(OC)cc12 [quinine sulfate] | 0.546 | 
2 | O=C(O)CN(CCOCCOCCN(CC(=O)O)CC(=O)O)CC(=O)O [EGTA, ethyleneglycol-bis(β-aminoethyl)-N,N,N′,N′-tetraacetic acid] |  | 4.6
